In patent publication US9260404B1, “Preparation of ambrox from labdanes of Dysoxylum hongkongense, and the preparation of new diterpenoids from Dysoxylum hongkongense” (National Taiwan University, priority 2014, dated 2016):
Values after ≈ are worked out from the molar mass of the structure shown.

How the values were obtained:
HSV-1 (KOS strain) = experiment: Anti-HSV-1 plaque reduction assay in Vero cells; type: cell-based, Herpes Simplex Virus-1; conditions: for inhibition at 10 µM: Human alphaherpesvirus 1, plaque formation in Vero cells, read-out: inhibition (in vitro inhibitory activity against the HSV-1 virus); for inhibition (in vitro inhibitory activity against the HSV-1 virus): at 10 μM, plaque formation in Vero cells
Experimental: Anti Herpes Simplex Virus-1 (HSV-1) Assay, Cell Culture and Virus. Vero cells were cultured in minimal essential medium (MEM; GIBCO®, Grand Island, N.Y.) supplemented with 10% fetal calf serum (FCS; Hyclone™, Logan, Utah), 100 U/mL penicillin and 100 μg/mL streptomycin and incubated at 37° C. in a 5% CO2 incubator. To prepare a stock of HSV-1 (KOS strain, VR-1493, ATCC), Vero cells were infected with HSV-1 at a multiplicity of infection points on three plaque forming units (PFU)/cell and harvested at 24 hours postinfection and centrifuged at 1500×g (Centrifuge 5810 R, Eppendorf) at 4° C. for 20 minutes. The supernatant was collected and stored at −70° C. for use.
Plaque Reduction Assay. The bioassay followed a procedure described previously (Kuo et al., Samarangenin B from Limonium sinense Suppresses Herpes Simplex Virus Type 1 Replication in Vero Cells by Regulation of Viral Macromolecular Synthesis. Antimicrob. Agents Chemother., 2002, 46(9): 2854-2864.). […] The viruses were adsorbed for 1 hour at 37° C. and 1% methylcellulose was added to each well. After 5 days, the virus plaques formed in Vero cells were counted by crystal violet staining. The activities of various compounds and acyclovir for inhibition of plaque formation were calculated.

[1] = system: elastase release by human neutrophils; experiment: Elastase release by human neutrophils in response to FMLP/CB; type: cell-based; conditions: 10 μg/mL
Experimental: (§1) Anti-inflammatory Assays, Inhibitory Effect on Superpxide Anion Generation and Elastase Release by Human Neutrophils. Neutrophils were obtained by means of dextran sedimentation and Ficoll centrifugation. Superoxide generation and elastase release were carried out according to a procedure described previously (Hwang et al., Inhibition of Superoxide Anion and Elastase Release in Human Neutrophils by 3′-Isopropoxychalcone via a cAMP-dependent Pathway. Br. J. Pharmacol., 2006, 148(1): 78-87.; and Liaw et al., Frajunolides E-K, Briarane Diterpenes from Junceella fragilis. J. Nat. Prod., 2008, 71(9): 1551-1556.). Superoxide anion production was assayed by monitoring the superoxide dismutase-inhibitable reduction of ferricytochrome c. Elastase release experiments were performed using MeO-Suc-Ala-Ala-Pro-Val p-nitroanilide as the elastase substrate.

[2] = system: human laryngeal carcinoma Hep-2; experiment: Cytotoxic assay (MTT), Hep-2; type: cell-based; conditions: Hep-2, MTT assay
Experimental: (§2) Cytotoxic Assay. Human hepatocellular carcinoma Hep-G2, human colon adenocarcinoma WiDr and human laryngeal carcinoma Hep-2 were used as the targets for research, and an antitumor drug, mitomycin C, was the control. The effective dosage (ED50, μg/mL) of the compounds on the cancer cell cytotoxicity was determined by the well-known cytotoxicity assay (3-(4,5-dimethylthiazol-2-yl)-2,5-diphenyltetrazolium bromide (MTT) assay) in the art.

[3] = system: superoxide anion generation by human neutrophils; experiment: Superoxide anion generation by human neutrophils in response to FMLP/CB; type: cell-based; conditions: 10 μg/mL
Experimental: as §1

[4] = system: human hepatocellular carcinoma Hep-G2; experiment: Cytotoxic assay (MTT), Hep-G2; type: cell-based
Experimental: as §2

[5] = system: human colon adenocarcinoma WiDr; experiment: Cytotoxic assay (MTT), WiDr; type: cell-based
Experimental: as §2

`C=C[C@@](C)(O)[C@H]1C[C@@H]2[C@@]3(C)CCC(=O)C(C)(C)[C@@H]3CC[C@@]2(C)O1` [Compound 10, Dysongensin D] was tested, and the inhibition at 10 µM (HSV-1 (KOS strain)) was 25.2 ± 6%.

With `C=C[C@](C)(O)[C@H]1C[C@@H]2[C@@]3(C)CCC(=O)C(C)(C)[C@@H]3CC[C@@]2(C)O1` [Compound 11, Dysongensin E] the “anti-inflammatory effect on elastase release” value [1] was 31.29±6.67%.

`C=C[C@@](C)(O)[C@@H]1C[C@@H]2[C@@]3(C)CCC(=O)C(C)(C)[C@@H]3CC[C@@]2(C)O1` [Compound 9, Dysongensin C] was tested, and the “inhibition (in vitro inhibitory activity against the HSV-1 virus)” value (HSV-1 (KOS strain)) was 32.7±4.0%.

`C=C[C@](C)(O)[C@H]1C[C@@H]2[C@@]3(C)CC[C@H](O)C(C)(C)[C@@H]3CC[C@@]2(C)O1` [Compound 12, Dysongensin F] was tested, and the “ED50 cytotoxic activity against Hep-2 cells” value [2] was 17.92 ± 0.25 µg/mL (≈ 55.6 µM).

With `C=C[C@](O)(CO)[C@@H]1C[C@@H]2[C@@]3(C)CCC4C[C@@]4(C)[C@@H]3CC[C@@]2(C)O1` (stereo partly drawn) [Compound 14, Dysongensin H] the inhibition at 10 µM (HSV-1 (KOS strain)) was 29.7 ± 6%, the “anti-inflammatory effect on superoxide anion generation” value [3] was 25.33±4.04% and the “ED50 cytotoxic activity against Hep-G2 cells” value [4] was 16.86 ± 0.85 µg/mL (≈ 52.6 µM). The “ED50 cytotoxic activity against WiDr cells” value [5] was 15.45 ± 0.73 µg/mL (≈ 48.2 µM).

For `C=C[C@@]1(C)O[C@]2(C)CC[C@H]3C(C)(C)C(=O)CC[C@]3(C)[C@H]2C[C@H]1O` [Compound 8, Dysongensin B], the “ED50 cytotoxic activity against Hep-G2 cells” value [4] was 18.05 ± 0.58 µg/mL (≈ 56.3 µM), the “ED50 cytotoxic activity against WiDr cells” value [5] was 19.13 ± 0.56 µg/mL (≈ 59.7 µM) and the “ED50 cytotoxic activity against Hep-2 cells” value [2] was 16.07 ± 0.17 µg/mL (≈ 50.1 µM).

For `C=C[C@@](O)(CO)[C@H]1C[C@@H]2[C@@]3(C)CCC4C[C@@]4(C)[C@@H]3CC[C@@]2(C)O1` (stereo partly drawn) [Compound 13, Dysongensin G], the “inhibition (in vitro inhibitory activity against the HSV-1 virus)” value (HSV-1 (KOS strain)) was 29.3±9.0% and the “ED50 cytotoxic activity against Hep-G2 cells” value [4] was 37.78 ± 0.81 µg/mL (≈ 118 µM).

With Dysongensin A [Compound 1] the “ED50 cytotoxic activity against Hep-G2 cells” value [4] was 20.34 ± 0.58 µg/mL and the “ED50 cytotoxic activity against WiDr cells” value [5] was 18.67 ± 0.56 µg/mL.
